Measured values: patent US7538123B2, “Indole derivative having piperidine ring” (Eisai R & D Management Co., Ltd., priority 2004, dated 2009)

Target: T1, serotonin 1A receptor (Mus musculus, UniProt Q64264)
T1 construct: into the rectum of CD-1 (ICR) male mice (25-45 g); from tissue; host or cells: living CD-1 (ICR) male mice (whole animal)
T1 sequence (Q64264 1-421): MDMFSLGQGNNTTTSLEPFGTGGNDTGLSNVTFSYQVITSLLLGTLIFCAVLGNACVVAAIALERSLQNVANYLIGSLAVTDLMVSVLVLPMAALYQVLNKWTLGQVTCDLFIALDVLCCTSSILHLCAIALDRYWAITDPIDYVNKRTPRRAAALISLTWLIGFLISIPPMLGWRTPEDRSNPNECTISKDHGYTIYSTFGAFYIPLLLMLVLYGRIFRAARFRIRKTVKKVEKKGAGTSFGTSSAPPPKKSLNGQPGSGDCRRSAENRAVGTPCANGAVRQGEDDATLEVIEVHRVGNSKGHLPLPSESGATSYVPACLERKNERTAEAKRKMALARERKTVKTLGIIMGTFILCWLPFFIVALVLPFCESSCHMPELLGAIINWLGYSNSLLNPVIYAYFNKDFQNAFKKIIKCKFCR
Test: Antagonistic effect on serotonin 1A receptor agonist-induced hypothermia in mouse
Assay type: in vivo
Conditions: sc
Protocol: (1) A thermistor probe was inserted at a depth of approximately 2 cm into the rectum of CD-1 (ICR) male mice (25-45 g), so as to measure the body temperature thereof. Body temperature is decreased by subcutaneous administration of serotonin 1A receptor agonist (8-hydroxy-dipropylaminotetralin) 0.5 mg/kg. Since a serotonin 1A antagonist inhibits such action, the antagonistic effect of a test substance to a serotonin 1A receptor was evaluated using the inhibitory effect of the hypothermia as an index. A test substance was administered 15 minutes before the administration of the serotonin 1A agonist. A serotonin 1A partial agonist alone decreases the body temperature, depending on the degree of the agonistic action thereof. In addition, it has a weak antagonistic effect on 8-hydroxy-dipropylaminotetralin-induced hypothermia. (2) Results

| SMILES | ED50 |
| --- | --- |
| COc1ccc2c(C)noc2c1CCN1CCC(n2ccc3ccc(C(N)=O)cc32)CC1 [Compound 1, 1-{1-[2-(6-methoxy-3-methylbenz[d]isoxazol-7-yl)ethyl]piperidin-4-yl}-1H-indole-6-carboxamide] | 0.3 mg/kg |
| CNC(=O)c1ccc2ccn(C3CCN(CCc4c(OC)ccc5c4OC(C)(C)CC5O)CC3)c2c1 (centres unmarked) [Compound 48, 1-{1-[2-(4-hydroxy-7-methoxy-2,2-dimethylchroman-8-yl)ethyl]piperidin-4-yl}-N-methyl-1H-indole-6-carboxamide] | 0.06 mg/kg |

Same assay, conditions: sc, 15 minutes before 8-hydroxy-dipropylaminotetralin 0.5 mg/kg sc, inhibition of hypothermia, CD-1 (ICR) male mice, read-out: ED50

| SMILES | ED50 |
| --- | --- |
| COc1ccc2ncccc2c1CCN1CCC(n2ccc3ccc(C(N)=O)cc32)CC1 [Compound 30, 1-{1-[2-(6-methoxyquinolin-5-yl)ethyl]piperidin-4-yl}-1H-indole-6-carboxamide] | 0.62 mg/kg |
| COc1ccc2c(c1CCN1CCC(n3ccc4ccc(C(N)=O)cc43)CC1)CCN(C)C2=O [Compound 34, 1-(1-(2-(6-methoxy-2-methyl-1-oxo-1,2,3,4-tetrahydroisoquinolin-5-yl)ethyl)piperidin-4-yl)-1H-indole-6-carboxamide] | 0.37 mg/kg |
| COc1cc2nc(C)oc2cc1CCN1CCC(n2ccc3ccc(C(N)=O)cc32)CC1 [Compound 8, 1-{1-[2-(5-methoxy-2-methylbenzoxazol-6-yl)ethyl]piperidin-4-yl}-1H-indole-6-carboxamide] | 0.07 mg/kg |
| COc1cc2onc(C)c2cc1CCN1CCC(n2ccc3ccc(C(N)=O)cc32)CC1 [Compound 2, 1-{1-[2-(6-methoxy-3-methylbenzo[d]isoxazol-5-yl)ethyl]piperidin-4-yl}-1H-indole-6-carboxamide] | 0.4 mg/kg |
| COc1cc2nc(C)sc2cc1CCN1CCC(n2ccc3ccc(C(N)=O)cc32)CC1 [Compound 28, 1-{1-[2-(5-methoxy-2-methylbenzothiazol-6-yl)ethyl]piperidin-4-yl}-1H-indole-6-carboxamide] | 0.02 mg/kg |
| COc1ccc2c(=O)c(C)c(C)oc2c1CCN1CCC(n2ccc3ccc(C(N)=O)cc32)CC1 [Compound 36, 1-{1-[2-(7-methoxy-2,3-dimethyl-4-oxo-4H-chromen-8-yl)ethyl]piperidin-4-yl}-1H-indole-6-carboxamide] | 0.2 mg/kg |
| COc1cc2c(cc1CCN1CCC(n3ccc4ccc(C(N)=O)cc43)CC1)C(=O)N(C)CCO2 [Compound 9, 1-{1-[2-(8-methoxy-4-methyl-5-oxo-2,3,4,5-tetrahydrobenzo[f][1,4]oxazepin-7-yl)ethyl]piperidin-4-yl}-1H-indole-6-carboxamide] | 0.3 mg/kg |
| COc1ccc2c(c1CCN1CCC(n3ccc4ccc(C(N)=O)cc43)CC1)CCC2=O [Compound 25, 1-{1-[2-(5-methoxy-1-oxoindan-4-yl)ethyl]piperidin-4-yl}-1H-indole-6-carboxamide] | 0.1 mg/kg |

Next, values leading:

| ED50 | SMILES |
| --- | --- |
| 0.5 mg/kg | COc1cc2c(cc1CCN1CCC(n3ccc4ccc(C(N)=O)cc43)CC1)N(C(C)=O)CCC2 [Compound 52, 1-{1-[2-(1-acetyl-6-methoxy-1,2,3,4-tetrahydroquinolin-7-yl)ethyl]piperidin-4-yl}-1H-indole-6-carboxamide] |
| 0.3 mg/kg | COc1cc2c(cc1CCN1CCC(n3ccc4ccc(C(N)=O)cc43)CC1)N(C)CCC2 [Compound 53, 1-{1-[2-(6-methoxy-1-methyl-1,2,3,4-tetrahydroquinolin-7-yl)ethyl]piperidin-4-yl}-1H-indole-6-carboxamide] |
| 0.19 mg/kg | CNC(=O)c1ccc2ccn(C3CCN(CCc4cc5c(cc4OC)CCN(C)C5=O)CC3)c2c1 [Compound 38, 1-{1-[2-(6-methoxy-2-methyl-1-oxo-1,2,3,4-tetrahydroisoquinolin-7-yl)ethyl]piperidin-4-yl}-N-methyl-1H-indole-6-carboxamide] |
| 0.41 mg/kg | COc1ccc2ccccc2c1CCN1CCC(n2ccc3ccc(C(N)=O)cc32)CC1 [Compound 44, 1-{1-[2-(2-methoxynaphthalen-1-yl)ethyl]piperidin-4-yl}-1H-indole-6-carboxamide] |
